Source: US20260374766A1, “METHODS FOR TREATING CANCER” (Antares Therapeutics, Inc., priority 2022, published 2026)

Columns and labels:
[1] = biological target: T1, p53 Y220C mutant protein (amino acid residues 94-293) (Homo sapiens, UniProt P04637, Y220C); assay: Surface Plasmon Resonance (SPR) assay, Kd_kinetic; format: binding; conditions: SPR, kinetic KD, p53 Y220C; read-out: SPR P53 Y220C KD kinetic
T1 construct: p53 Y220C mutant protein (amino acid residues 94-293)
Outline: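 Biacore 8K SPR; 16 or 20 °C; Tris 50 mM pH 7.5, NaCl 100 mM, DTT 1 mM, Brij35 0.01%, Tween-20 0.05%, DMSO 1%. Kd_kinetic by 1:1 fit.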

[2] = biological target: T1, p53 Y220C mutant protein (amino acid residues 94-293); assay: Thermal Shift Assay (TSA), dTM; format: binding; conditions: thermal shift, 100 uM compound; read-out: TSA P53 Y220C dTM (100 uM)
Outline: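 Differential scanning fluorimetry with Sypro Orange on 5 μM p53 Y220C residues 94-293, compound tested at 10 μM or 100 μM after 3 hours at 20 °C; buffer 20 mM HEPES, pH7.4, 100 mM NaCl, 1% DMSO.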

p53 Y220C = p53 Y220C (Homo sapiens, UniProt P04637, Y220C); assay: Luciferase Reporter Assay (Luc), p53 response element, NClH1299 cells with inducible p53 Y220C; format: cell-based; conditions: luciferase reporter, NClH1299 inducible p53 Y220C, 6 hour; for Emax: 10 uM tool compound as positive control; for AC50: read-out: Luc P53 Y220C AC50
Outline: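 24 h dox pre-induction (0.5 ug/mL), then 6 h compound; One-Glo luminescent read.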

NUGC3 p53 Y220C = assay: Cell Proliferation Assay (CellTiter-Glo, CTG), NUGC3 p53 Y220C; format: cell-based; conditions: Homo sapiens, NUGC-3, 120 h, CellTiter-Glo, NUGC3 p53 Y220C, 5 days
Outline: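 Tet-One inducible p53 Y220C or R273H constructs were stably introduced into NCI-H1299 by lentiviral transduction; NUGC3 was used as is. Cells (250-500 per well) were exposed to compound for 5 days, then CellTiter-Glo was added for 10 min at room temperature and IC50 was calculated from luminescence.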

H1299 p53 Y220C = assay: Cell Proliferation Assay (CellTiter-Glo, CTG), H1299 p53 Y220C (NClH1299-inducible p53 Y220C); format: cell-based; conditions: Homo sapiens, NCI-H1299, 120 h, CellTiter-Glo, H1299 p53 Y220C, 5 days
Outline: (§1)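 NClH1299 lines stably transduced with Tet-inducible p53 Y220C or R273H, plus NUGC3, were treated with compound for 5 days at 250-500 cells/well. IC50 derived from CellTiter-Glo luminescent signal after 10 min room-temperature incubation.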

H1299 p53 R273H = assay: Cell Proliferation Assay (CellTiter-Glo, CTG), H1299 p53 R273H (NClH1299-inducible p53 R273H); format: cell-based; conditions: Homo sapiens, NCI-H1299, 120 h, CellTiter-Glo, H1299 p53 R273H, 5 days
Outline: as §1

| SMILES | Kd [1] [nM] | ΔTm at 100 µM [2] [°C] | Emax (p53 Y220C) [%] | AC50 (p53 Y220C) [nM] | IC50 (NUGC3 p53 Y220C) [nM] | IC50 (H1299 p53 Y220C) [nM] | IC50 (H1299 p53 R273H) [nM] |
| --- | --- | --- | --- | --- | --- | --- | --- |
| CNC(=O)Nc1cc(NC2CCN(C)CC2)c2nc(C#CCNc3ccc(C(=O)NC)cc3OC)c(CC(F)(F)F)n2c1 [Example 44, 3-methoxy-N-methyl-4-[(3-{6-[(methylcarbamoyl)amino]-8-[(1-methylpiperidin-4-yl)amino]-3-(2,2,2-trifluoroethyl)imidazo[1,2-a]pyridin-2-yl}prop-2-yn-1-yl)amino]benzamide] | 100 to 1000 | 1 to 5 | < 70 | > 3000 | > 3000 | > 3000 | ≥ 10000 |
| COc1cc(C(=O)N(C)C)ccc1NCC#Cc1nc2c(N[C@@H]3CCN(C)C[C@@H]3F)cccn2c1CC(F)(F)F [Example 46, 4-{[3-(8-{[(3S,4R)-3-fluoro-1-methylpiperidin-4-yl]amino}-3-(2,2,2-trifluoroethyl)imidazo[1,2-a]pyridin-2-yl)prop-2-yn-1-yl]amino}-3-methoxy-N,N-dimethylbenzamide] | < 10 | ≥ 10 | 70 to 80 | 1500 to 3000 | 1500 to 3000 | 750 to 1500 | ≥ 10000 |
| CCNC(=O)c1ccc(NCC#Cc2nc3c(N[C@@H]4CCN(C)C[C@@H]4F)cccn3c2CC(F)(F)F)c(OC)c1 [Example 47, N-ethyl-4-{[3-(8-{[(3S,4R)-3-fluoro-1-methylpiperidin-4-yl]amino}-3-(2,2,2-trifluoroethyl)imidazo[1,2-a]pyridin-2-yl)prop-2-yn-1-yl]amino}-3-methoxybenzamide] | 10 to 100 | ≥ 10 | 70 to 80 | > 3000 | > 3000 | 1500 to 3000 | ≥ 10000 |
| COc1cc(C(=O)NC(C)C)ccc1NCC#Cc1nc2c(N[C@@H]3CCN(C)C[C@@H]3F)cccn2c1CC(F)(F)F [Example 48, 4-{[3-(8-{[(3S,4R)-3-fluoro-1-methylpiperidin-4-yl]amino}-3-(2,2,2-trifluoroethyl)imidazo[1,2-a]pyridin-2-yl)prop-2-yn-1-yl]amino}-N-isopropyl-3-methoxybenzamide] | < 10 | ≥ 10 | 70 to 80 | 750 to 1500 | 750 to 1500 | < 750 | 5000 to 8000 |
| COc1cc(C(=O)NC2CC2)ccc1NCC#Cc1nc2c(N[C@@H]3CCN(C)C[C@@H]3F)cccn2c1CC(F)(F)F [Example 49, N-cyclopropyl-4-{[3-(8-{[(3S,4R)-3-fluoro-1-methylpiperidin-4-yl]amino}-3-(2,2,2-trifluoroethyl)imidazo[1,2-a]pyridin-2-yl)prop-2-yn-1-yl]amino}-3-methoxybenzamide] | 10 to 100 | ≥ 10 | 70 to 80 | 750 to 1500 | 750 to 1500 | 750 to 1500 | 8000 to 10000 |
| COc1cc(C(=O)N2CCCC2)ccc1NCC#Cc1nc2c(N[C@@H]3CCN(C)C[C@@H]3F)cccn2c1CC(F)(F)F [Example 50, (3S,4R)-3-fluoro-N-[2-(3-{[2-methoxy-4-(pyrrolidine-1-carbonyl)phenyl]amino}prop-1-yn-1-yl)-3-(2,2,2-trifluoroethyl)imidazo[1,2-a]pyridin-8-yl]-1-methylpiperidin-4-amine] | 10 to 100 | ≥ 10 | < 70 | 750 to 1500 | 750 to 1500 | 750 to 1500 | ≥ 10000 |
| CNC(=O)c1ccc(NCC#Cc2nc3c(N[C@@H]4CCN(C)C[C@@H]4F)cccn3c2CC(F)(F)F)cn1 [Example 52, 5-{[3-(8-{[(3S,4R)-3-fluoro-1-methylpiperidin-4-yl]amino}-3-(2,2,2-trifluoroethyl)imidazo[1,2-a]pyridin-2-yl)prop-2-yn-1-yl]amino}-N-methylpyridine-2-carboxamide] | 10 to 100 | 5 to 10 | 70 to 80 | > 3000 | > 3000 | 1500 to 3000 | ≥ 10000 |
| CNC(=O)c1ccc(NCC#Cc2nc3c(N[C@@H]4CCN(C)C[C@@H]4F)cccn3c2CC(F)(F)F)c(OC(F)(F)F)c1 [Example 53, 4-{[3-(8-{[(3S,4R)-3-fluoro-1-methylpiperidin-4-yl]amino}-3-(2,2,2-trifluoroethyl)imidazo[1,2-a]pyridin-2-yl)prop-2-yn-1-yl]amino}-N-methyl-3-(trifluoromethoxy) benzamide] | 10 to 100 | 5 to 10 | 70 to 80 | > 3000 | 1500 to 3000 | 1500 to 3000 | ≥ 10000 |
| CNC(=O)c1ccc(NCC#Cc2nc3c(N[C@@H]4CCN(C)C[C@@H]4F)cccn3c2CC(F)(F)F)c(C(F)(F)F)c1 [Example 54, 4-{[3-(8-{[(3S,4R)-3-fluoro-1-methylpiperidin-4-yl]amino}-3-(2,2,2-trifluoroethyl)imidazo[1,2-a]pyridin-2-yl)prop-2-yn-1-yl]amino}-N-methyl-3-(trifluoromethyl)benzamide] | 10 to 100 | ≥ 10 | 70 to 80 | > 3000 | > 3000 | > 3000 | ≥ 10000 |
| CNC(=O)c1ccc(NCC#Cc2nc3c(N[C@@H]4CCN(C)C[C@@H]4F)cccn3c2CC(F)(F)F)c(Cl)c1 [Example 55, 3-chloro-4-{[3-(8-{[(3S,4R)-3-fluoro-1-methylpiperidin-4-yl]amino}-3-(2,2,2-trifluoroethyl)imidazo[1,2-a]pyridin-2-yl)prop-2-yn-1-yl]amino}-N-methylbenzamide] | 10 to 100 | ≥ 10 | > 90 | 750 to 1500 | 750 to 1500 | 750 to 1500 | ≥ 10000 |
| CNC(=O)c1ccc(NCC#Cc2nc3c(N[C@@H]4CCN(C)C[C@@H]4F)cccn3c2CC(F)(F)F)c(C#N)c1 [Example 56, 3-cyano-4-{[3-(8-{[(3S,4R)-3-fluoro-1-methylpiperidin-4-yl]amino}-3-(2,2,2-trifluoroethyl)imidazo[1,2-a]pyridin-2-yl)prop-2-yn-1-yl]amino}-N-methylbenzamide] | 10 to 100 | ≥ 10 | 80 to 90 | > 3000 | > 3000 | > 3000 | ≥ 10000 |
| CNC(=O)c1ccc(NCC#Cc2nc3c(N[C@@H]4CCN(C)C[C@@H]4F)cccn3c2CC(F)(F)F)c(C2CC2)c1 [Example 57, 3-cyclopropyl-4-{[3-(8-{[(3S,4R)-3-fluoro-1-methylpiperidin-4-yl]amino}-3-(2,2,2-trifluoroethyl)imidazo[1,2-a]pyridin-2-yl)prop-2-yn-1-yl]amino}-N-methylbenzamide] | 10 to 100 | ≥ 10 | 70 to 80 | > 3000 | > 3000 | > 3000 | ≥ 10000 |
| CCc1cc(C(=O)NC)ccc1NCC#Cc1nc2c(N[C@@H]3CCN(C)C[C@@H]3F)cccn2c1CC(F)(F)F [Example 58, 3-ethyl-4-{[3-(8-{[(3S,4R)-3-fluoro-1-methylpiperidin-4-yl]amino}-3-(2,2,2-trifluoroethyl)imidazo[1,2-a]pyridin-2-yl)prop-2-yn-1-yl]amino}-N-methylbenzamide] | < 10 | 5 to 10 | 70 to 80 | > 3000 | > 3000 | > 3000 | ≥ 10000 |
| CCOc1cc(C(=O)NC)ccc1NCC#Cc1nc2c(N[C@@H]3CCN(C)C[C@@H]3F)cccn2c1CC(F)(F)F [Example 59, 3-ethoxy-4-{[3-(8-{[(3S,4R)-3-fluoro-1-methylpiperidin-4-yl]amino}-3-(2,2,2-trifluoroethyl)imidazo[1,2-a]pyridin-2-yl)prop-2-yn-1-yl]amino}-N-methylbenzamide] | < 10 | 5 to 10 | 70 to 80 | 1500 to 3000 | 750 to 1500 | 750 to 1500 | ≥ 10000 |
| CNC(=O)c1ccc(NCC#Cc2nc3c(N[C@@H]4CCN(C)C[C@@H]4F)cccn3c2CC(F)(F)F)c(OC(F)F)c1 [Example 60, 3-(difluoromethoxy)-4-{[3-(8-{[(3S,4R)-3-fluoro-1-methylpiperidin-4-yl]amino}-3-(2,2,2-trifluoroethyl)imidazo[1,2-a]pyridin-2-yl)prop-2-yn-1-yl]amino}-N-methylbenzamide] | < 10 | ≥ 10 | 70 to 80 | > 3000 | 1500 to 3000 | 1500 to 3000 | ≥ 10000 |
